According to patent US11963964B2, “Small molecules for mouse satellite cell proliferation” (President and Fellows of Harvard College, priority 2011, dated 2024):
“Also recorded” adds a separate entry of the source.

Legend:
[1] = tested on: satellite cells; test: Satellite cell proliferation screen and dose response, image-based cell count; parameters: species or system mouse; details: for activity on in vitro satellite cell proliferation (in words): screen hits tested in dose response / retest
[2] = tested on: satellite cells (SMPs); test: Satellite cell (SMP) proliferation with or without bFGF, 300 cells/well; assay type: cell-based, mouse; details: for additive or synergistic action with bFGF: compound plus bFGF versus bFGF alone (FIGS. 15-17, 28, 29)
[3] = tested on: primary fibroblasts; test: Specificity test on Sca1-positive fibroblasts (Ki67); assay type: cell-based, mouse; details: primary fibroblasts (FIG. 23)
[4] = tested on: satellite cells from aged and young tissue; test: Proliferation of satellite cells from aged and young mice; assay type: cell-based, mouse; details: aged cells as well as young cells (FIGS. 24, 25)
[5] = tested on: satellite cells (SMPs); test: Differentiation of compound-treated SMPs into myotubes (myosin heavy chain staining); assay type: cell-based, mouse; details: compound in proliferation conditions, then differentiation media
Protocol: CAG-EGFP satellite cells were grown in the inventors' standard proliferation conditions and exposed to compounds for four days. Under the inventors' standard proliferation conditions cells were cultured on laminin-coated plates in Ham's F-10 medium supplemented with 10% heat inactivated horse serum, 100Units/mL penicillin/100 ug/mL streptomycin, and 2 mM L-glutamine. Compounds were added the day after plating. The compounds and media were either refreshed daily or after three days. To differentiate cells and form myotubes, after four days in proliferation conditions, media was switched to high-glucose DMEM supplemented with 10% heat inactivated horse serum, 10% fetal bovine serum, 0.5% chick embryo extract, 100Units/mL penicillin/100 ug/mL streptomycin, and 2 mM L-glutamine. Cultures were grown in differentiation media for 3-5 days until myotube formation was observed, then fixed. Cultures were then switched into differentiation media and cultured another four days. They were then fixed and stained with anti-myosin heavy chain (red channel) and Hoechst (blue channel).
For these experiments, 300 cells were plated in each well at Day 0 in our standard proliferation media (10% horse serum in F-10). […]
The inventors also assessed effects these compounds were having on the identity of the satellite cells and their ability to differentiate in culture. […]

[6] = tested on: satellite cells; test: Satellite cell proliferation in combination with TGF-beta inhibitor (Alk5 inhibitor II); assay type: cell-based, mouse
[7] = tested on: myoblasts; test: Myoblast differentiation in differentiation media (5% horse serum); assay type: cell-based; details: differentiation media comprising 5% horse serum (FIG. 39)
[8] = tested on: human satellite cells; test: Expansion of human satellite cells; assay type: cell-based
[9] = tested on: satellite cells from Tg:Pax7-nGFP mice; test: LINCS library screen for satellite cell proliferation (Hoechst 33342 high content imaging); assay type: cell-based, mouse; details: satellite cells cultured for 4 days, 96w plates
From the text: This example includes a list of primary hits from a screen designed to identify compounds that promote satellite cell proliferation in vitro. The satellite cell is a skeletal muscle stem cell responsible for post-natal muscle growth and regeneration. […] The four compound libraries tested, LINCS 1, 2, 3 and 4, were provided to us by the Sorger lab at Harvard Medical School. The Sorger lab is a member of the LINCS (Library of Integrated Network-Based Cellular Signatures) Consortium, which is an NIH initiative aiming to generate public data to further research of therapeutically relevant cellular pathways. LINCS 1, 2, and 4 contain kinase inhibitors, while LINCS 3 contains epigenetic modifiers.
FIG. 50 identifies small molecules that promote satellite cell proliferation screen in this Example. (A) Chemical screen experimental schematic outlining FACS isolation and compound library treatment of satellite cells. (B) Representative dose response curves from four of the top ten compounds. Top ten compounds were chosen based on highest fold change of cell proliferation relative to vehicle controls. Proliferation was assessed via high content imaging using Hoechst 33342 as a cell marker. (C) Representative fluorescent images of FACS sorted satellite cells from Tg:Pax7-nGFP mice on 96w plates cultured for 4 days and treated with vehicle, compound or positive control (Jak3 inhibitor 6). Optimal treatment concentration for each compound was determined in dose response; 3 uM for XMD8-92, 5 uM for SB23906, 800 nM for XMD11-50, and 400 nM for Vorinostat. Hoechst 33342 was used as a cell marker. Scale bars denote 100 um. (D) Fold change relative to vehicle control for several compounds that promote satellite cell expansion.
Satellite cells were isolated from intact limb muscle and prepared for fluorescence activated cell sorting (FACS) as described previously (Rocheteau et al., 2012). FACS was performed at Harvard University at the Bauer Flow Cytometry Core Facility on a Beckman Coulter MoFlo Legacy (Beckman Coulter). Satellite cells were sorted into Eppendorf tubes, and plated onto 96 well plates by hand (Greiner). Plates were pre-coated at 37° C. for 4 hours with […] laminin diluted in PBS. Sorted cells were cultured in StemSpan SFEM II basal medium (Stem Cell Technologies) supplemented with 0.05 ng/mL basic fibroblast growth factor (bFGF, Life Technologies). Wells for the positive control were treated with 600 nM Jak3 inhibitor IV (EMD Millipore). For screening and dose response follow up, cells were plated at 150 cells/well.
The day cells were plated was considered Day 0. Compounds were added on Day 1. For screening and dose response follow up, cells were incubated without media change until Day 4 and plates were prepared for imaging. […]

`C[C@]12O[C@H](C[C@]1(O)CO)n1c3ccccc3c3c4c(c5c6ccccc6n2c5c31)CNC4=O` [CEP701, Lestaurtinib] was tested. Which “proliferation of the input SMP cells (level)” value ([1]; retest, DMSO-treated cells 1±0.3 in both trials) did it give?
The value was ~4.7±1.4.

And the “increase in proliferation, CEP701 and bFGF together” value ([2]; 0.05 μM CEP701 + 5 ng/mL bFGF daily, 300 cells/well, fixed four days after plating (FIG. 14))?
Its value is 8 fold.

What about the “effect on fibroblast proliferation” value [3] of the same compound?
The value was “no effect”.

What about the optimum concentration [4] of the same compound?
The optimum concentration was 50 nM.

What does the source list for `OC[C@H]1O[C@@H](n2cnc3c(NC4CCCC4)ncnc32)[C@H](O)[C@@H]1O` [N6-cyclopentyladenosine]?
activity on in vitro satellite cell proliferation (in words) [1]: identified and validated; also recorded: increase in vitro satellite cell proliferation; activity on in vitro satellite cell proliferation (in words) ([1]; listed as CPA): proliferation levels much greater than that seen in the negative control; increase in the cell number, combination of CPA and bFGF ([2]; CPA 30 μM + bFGF (FIG. 28)): fifteen-fold; additive or synergistic action with bFGF [2]: seen to synergize with bFGF; ability of treated cells to differentiate and fuse to form myotubes [5]: able to form myotubes; additive effect with TGF-beta inhibitor (Alk5 inhibitor II) ([6]; compound plus Alk5 inhibitor II (FIGS. 21, 32)): slight increase in proliferation; myoblast differentiation [7]: drive myoblast differentiation

`N#C/C(=C\c1ccc(O)c(O)c1)C(=O)NCc1ccccc1` [Tyr AG490] was tested. Which myoblast differentiation [7] did it give?
Its myoblast differentiation is “drive myoblast differentiation”.

How did the “expansion of human satellite cells (in words)” value [8] turn out when `CC(C)(C)c1cc(NC(=O)Nc2ccc(-c3cn4c(n3)sc3cc(OCCN5CCOCC5)ccc34)cc2)no1` [AC220, quizartinib] was run?
Its value is “ability to expand human satellite cells at low doses”.

With `COc1cc(C(=O)N2CCC(N3CCN(C)CC3)CC2)ccc1Nc1ncc2c(n1)N(C)c1ccccc1C(=O)N2C` [XMD11-50] as the compound, how does the “optimal treatment concentration determined in dose response” value (shortened to “optimal treatment concentration”) [9] read?
Its value is 800 nM.

`CCOc1cc(N2CCC(O)CC2)ccc1Nc1ncc2c(n1)N(C)c1ccccc1C(=O)N2C` [XMD8-92] was tested. Which “optimal treatment concentration” value [9] did it give?
Its value is 3000 nM.

With “bFGF: basic fibroblast growth factor, positive control” as the compound, how does the “number of cells per well at the end of the assay” value ([1]; 50 cells/well plated, Day 4, DMSO-treated wells around 50 cells) read?
Its value is 150-250 cells.

What about the “level of proliferation, fold change over the DMSO vehicle control” value ([1]; FIG. 3A, positive control, DMSO 1±0.3) of the same compound?
Its value is 3.4±0.9 fold change.

What about the “level of proliferation, fold change over the DMSO vehicle control (normalized value)” value ([1]; FIG. 3B, re-supplied compounds dose response, 50 cells/well, positive control, DMSO 1±0.4) of the same compound?
The value was 5.6±1.7 fold change.

And the “increase in the cell number, bFGF alone” value ([2]; FIG. 28)?
The value was “six-fold”.

What about the “ability of treated cells to differentiate and fuse to form myotubes” value [5] of the same compound?
Its value is “able to form large myotubes”.

Which “optimal treatment concentration” value [9] does the source give for `COc1nccc(-c2c(-c3ccc(F)cc3)ncn2C2CCC(O)CC2)n1` (stereo not shown) [SB23906] here?
The value was 5000 nM.

With Alk5 inhibitor II as the compound, how does the “proliferation on addition of Alk5 inhibitor II to the cultures” value ([6]; Alk5 inhibitor II alone) read?
Its value is “slight increase in proliferation”.

`O=C(CCCCCCC(=O)Nc1ccccc1)NO` [Vorinostat, suberoylanilide hydroxamic acid] was tested. Which “optimal treatment concentration” value [9] did it give?
The value was 400 nM.

`CCCC1O[C@@H]2C[C@H]3[C@@H]4CCC5=CC(=O)C=C[C@]5(C)[C@H]4[C@@H](O)C[C@]3(C)[C@]2(C(=O)CO)O1` (stereo partly shown) [Budesonide] was tested. Which “activity on in vitro satellite cell proliferation (in words)” value [1] did it give?
The value was “identified and validated; also recorded: proliferation levels much greater than that seen in the negative control”.

And the “additive or synergistic action with bFGF” value [2]?
Its value is “no additional increase”.
